Values of other authors, collected in paper PMC9516332 (Frontiers in Oncology, 2022).
Where two headings read alike, the source gives them in different places.

Key:
[1] = target: T1, panel of 255 wild-type kinases (Homo sapiens, UniProt O43781); conditions: kinase DYRK3, 1 µmol/L single concentration, cited from earlier work
T1 sequence (O43781 1-588): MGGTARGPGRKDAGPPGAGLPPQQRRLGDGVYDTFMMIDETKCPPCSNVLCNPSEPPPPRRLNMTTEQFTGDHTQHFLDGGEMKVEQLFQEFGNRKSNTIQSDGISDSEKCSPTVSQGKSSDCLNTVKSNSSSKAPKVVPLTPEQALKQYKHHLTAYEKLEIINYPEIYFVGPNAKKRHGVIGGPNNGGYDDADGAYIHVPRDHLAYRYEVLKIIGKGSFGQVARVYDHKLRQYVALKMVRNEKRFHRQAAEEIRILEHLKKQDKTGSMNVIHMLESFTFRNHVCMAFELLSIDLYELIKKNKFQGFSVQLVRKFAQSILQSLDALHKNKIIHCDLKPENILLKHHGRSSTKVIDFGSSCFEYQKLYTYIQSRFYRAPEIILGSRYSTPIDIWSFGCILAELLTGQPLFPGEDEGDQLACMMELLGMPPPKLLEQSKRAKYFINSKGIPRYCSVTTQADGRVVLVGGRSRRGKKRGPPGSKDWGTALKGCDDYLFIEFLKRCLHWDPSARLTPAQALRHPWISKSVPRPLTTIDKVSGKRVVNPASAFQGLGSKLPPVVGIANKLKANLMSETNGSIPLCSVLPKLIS

[2] = target: panel of 255 wild-type kinases (Homo sapiens, UniProt O60674); conditions: kinase JAK2, 1 µmol/L single concentration, cited from earlier work
[3] = target: panel of 255 wild-type kinases (Homo sapiens, UniProt O75676); conditions: MSK2, 1 µmol/L single concentration, cited from earlier work
[4] = target: panel of 255 wild-type kinases (Homo sapiens, UniProt P08631); conditions: kinase HCK, 1 µmol/L single concentration, cited from earlier work
[5] = target: panel of 255 wild-type kinases (Homo sapiens, UniProt P19525); conditions: kinase PKR, 1 µmol/L single concentration, cited from earlier work
[6] = target: panel of 255 wild-type kinases (Homo sapiens, UniProt P22694); conditions: kinase PKACβ, 1 µmol/L single concentration, cited from earlier work
[7] = target: T2, panel of 255 wild-type kinases (Homo sapiens, UniProt P36888); conditions: kinase FLT3, 1 µmol/L single concentration, cited from earlier work
T2 sequence (P36888 27-993): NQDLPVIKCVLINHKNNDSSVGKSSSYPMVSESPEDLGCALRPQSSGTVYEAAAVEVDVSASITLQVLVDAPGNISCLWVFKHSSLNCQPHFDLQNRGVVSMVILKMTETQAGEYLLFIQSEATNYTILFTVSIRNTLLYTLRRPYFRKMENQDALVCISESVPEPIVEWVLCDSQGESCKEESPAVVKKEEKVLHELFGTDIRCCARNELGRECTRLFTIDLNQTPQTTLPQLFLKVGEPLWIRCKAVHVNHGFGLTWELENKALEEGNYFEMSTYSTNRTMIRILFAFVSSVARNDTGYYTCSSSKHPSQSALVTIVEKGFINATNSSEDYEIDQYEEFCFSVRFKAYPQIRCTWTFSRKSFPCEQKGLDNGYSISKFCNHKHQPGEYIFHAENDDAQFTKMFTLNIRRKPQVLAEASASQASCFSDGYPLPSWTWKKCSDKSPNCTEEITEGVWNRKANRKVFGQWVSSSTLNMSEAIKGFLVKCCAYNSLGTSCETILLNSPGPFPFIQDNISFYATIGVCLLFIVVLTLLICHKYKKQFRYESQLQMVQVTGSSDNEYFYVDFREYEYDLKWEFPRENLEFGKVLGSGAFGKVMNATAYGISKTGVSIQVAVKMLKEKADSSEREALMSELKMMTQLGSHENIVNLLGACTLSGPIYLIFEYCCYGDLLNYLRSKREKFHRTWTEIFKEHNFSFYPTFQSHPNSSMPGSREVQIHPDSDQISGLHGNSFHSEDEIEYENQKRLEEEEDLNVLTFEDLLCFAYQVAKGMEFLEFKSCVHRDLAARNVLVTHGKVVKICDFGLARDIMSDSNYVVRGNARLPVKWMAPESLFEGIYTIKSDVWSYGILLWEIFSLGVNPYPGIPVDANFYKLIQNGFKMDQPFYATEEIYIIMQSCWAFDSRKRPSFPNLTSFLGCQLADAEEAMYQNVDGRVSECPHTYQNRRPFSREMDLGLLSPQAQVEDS

[8] = target: panel of 255 wild-type kinases (Homo sapiens, UniProt P49841); conditions: kinase GSK3β, 1 µmol/L single concentration, cited from earlier work
[9] = target: panel of 255 wild-type kinases (Homo sapiens, UniProt P51812); conditions: kinase RSK2, 1 µmol/L single concentration, cited from earlier work
[10] = target: panel of 255 wild-type kinases (Homo sapiens, UniProt P54756); conditions: kinase EPHA5, 1 µmol/L single concentration, cited from earlier work
[11] = target: panel of 255 wild-type kinases (Homo sapiens, UniProt Q8IY84); conditions: NIM1K; 1 µmol/L single concentration; ref DOI: 10.1158/1535-7163.MCT-18-0877; cited from earlier work
[12] = target: panel of 255 wild-type kinases (Homo sapiens, UniProt Q9UPE1); conditions: MSSK1, 1 µmol/L single concentration, cited from earlier work
[13] = ref DOI: 10.1158/1535-7163.MCT-18-0877
[14] = ref DOI: 10.1371/journal.pone.0092146

| SMILES | %-inhibition at 1 µmol/L, DYRK3 [1, 13] | %-inhibition at 1 µmol/L, JAK2 [2, 13] | %-inhibition, MSK2 [3, 13] | %-inhibition at 1 µmol/L, HCK [4, 13] | %-inhibition at 1 µmol/L, PKR [5, 13] | %-inhibition at 1 µmol/L, PKACβ [6, 13] | %-inhibition at 1 µmol/L, FLT3 [7, 13] | %-inhibition at 1 µmol/L, GSK3β [8, 13] | %-inhibition at 1 µmol/L, RSK2 [9, 13] | %-inhibition at 1 µmol/L, EPHA5 [10, 13] | %-inhibition, NIM1K [11] | %-inhibition, MSSK1 [12, 13] | %-inhibition at 1 µmol/L, DYRK3 [1, 14] | %-inhibition at 1 µmol/L, JAK2 [2, 14] | %-inhibition, MSK2 [3, 14] | %-inhibition at 1 µmol/L, HCK [4, 14] | %-inhibition at 1 µmol/L, PKR [5, 14] | %-inhibition at 1 µmol/L, PKACβ [6, 14] | %-inhibition at 1 µmol/L, GSK3β [8, 14] | %-inhibition at 1 µmol/L, RSK2 [9, 14] | further results |
| --- | --- | --- | --- | --- | --- | --- | --- | --- | --- | --- | --- | --- | --- | --- | --- | --- | --- | --- | --- | --- | --- |
| O=C(c1ccc(F)c(F)c1Nc1ccc(I)cc1F)N1CC(O)([C@@H]2CCCCN2)C1 [cobimetinib] | -3.62% | 1.2% | -0.0695% | -3.63% | 0.867% | -6.51% | -0.393% | -2.44% | 6% | 1.26% | -3.67% | 1.46% |  |  |  |  |  |  |  |  |  |
| CO[C@@H]1[C@H](N(C)C(=O)c2ccccc2)C[C@H]2O[C@]1(C)n1c3ccccc3c3c4c(c5c6ccccc6n2c5c31)C(=O)NC4 [midostaurin] |  | 99% | 77% |  | 32% | 91% |  |  | 99% | 8% | 1.15% | -9% |  |  |  |  |  |  |  |  |  |
| C=CC(=O)N1CCC[C@@H](n2nc(-c3ccc(Oc4ccccc4)cc3)c3c(N)ncnc32)C1 [ibrutinib] | -4% | 0.407% | -2% | 100% | 5.63% | -9% | 63% | -4% | 7.41% | 26% | -2.33% | 1.54% |  |  |  |  |  |  |  |  |  |
| C[C@@H](Oc1cc(-c2cnn(C3CCNCC3)c2)cnc1N)c1c(Cl)ccc(F)c1Cl [crizotinib] |  |  |  |  |  |  |  |  |  |  |  |  | 14% | 98% | -1.8% | 26% | 6% | -2.3% | -2.11% | 0.217% | %-inhibition at 1 µmol/L, EPHA5 [10, 14]: 71% |
| Cc1cc(Nc2ncc(Cl)c(Nc3ccccc3S(=O)(=O)C(C)C)n2)c(OC(C)C)cc1C1CCNCC1 [ceritinib] | -2.12% | -5.35% | 2.2% | 15% | -1% | -11% |  | -2.5% | 83% | 5% | -1.37% | 36% |  |  |  |  |  |  |  |  |  |
| CC(C)(C)c1nc(-c2cccc(NS(=O)(=O)c3c(F)cccc3F)c2F)c(-c2ccnc(N)n2)s1 [dabrafenib] |  |  |  |  |  |  |  |  |  |  |  |  | -5.68% |  |  | 57% |  |  |  |  | %-inhibition at 1 µmol/L, FLT3 [7, 14]: 41%; %-inhibition, MSSK1 [12, 14]: 2.55% |
| C=CC(=O)Nc1cc(Nc2nccc(-c3cn(C)c4ccccc34)n2)c(OC)cc1N(C)CCN(C)C [osimertinib] | 21% | 4% | 0.681% | 0.0489% | 6% | -6% | 84% | -4% | 42% | -0.189% | -10% | 0.582% |  |  |  |  |  |  |  |  |  |
| CCCS(=O)(=O)Nc1ccc(F)c(C(=O)c2c[nH]c3ncc(-c4ccc(Cl)cc4)cc23)c1F [vemurafenib] |  |  |  |  |  |  |  |  |  |  |  |  | 5% | 18% | -1% | 30% | -0.765% | 2.66% | 8% | -2.31% | %-inhibition at 1 µmol/L, FLT3 [7, 14]: 10%; %-inhibition at 1 µmol/L, EPHA5 [10, 14]: 14%; %-inhibition, MSSK1 [12, 14]: -6.65% |
| CC(=O)Nc1cccc(-n2c(=O)n(C3CC3)c(=O)c3c(Nc4ccc(I)cc4F)n(C)c(=O)c(C)c32)c1 [trametinib] |  |  |  |  |  |  |  |  |  |  |  |  | -10% | 1.75% | -4.75% | -2.84% | 1.13% | -5% | -15% | -1.76% | %-inhibition at 1 µmol/L, FLT3 [7, 14]: 20%; %-inhibition at 1 µmol/L, EPHA5 [10, 14]: -2.67%; %-inhibition, MSSK1 [12, 14]: -5% |
